Read-outs that look alike come from different tables or passages of the source. Square brackets hold non-standard residues; d marks the D form. Peptide text beside a SMILES is read from it. * marks the point of attachment. code Z = Europium label (diethylenetriaminepentaacetatoeuropium); Cha = N[C@@H](CC1CCCCC1)C(=O)O; X15 = O=S(=O)(c1cccc2cccnc12)*; X19 = O=C(Cc1ccc(Br)cc1)*; Morpholide = C1CN(*)CCO1; PhAc = O=C(Cc1ccccc1)*; Bz = O=C(c1ccccc1)*; NHNH2 = NN*
Biological target: VLA-4 (Homo sapiens, UniProt P05556+P13612)
Sequence (P13612 34-1032): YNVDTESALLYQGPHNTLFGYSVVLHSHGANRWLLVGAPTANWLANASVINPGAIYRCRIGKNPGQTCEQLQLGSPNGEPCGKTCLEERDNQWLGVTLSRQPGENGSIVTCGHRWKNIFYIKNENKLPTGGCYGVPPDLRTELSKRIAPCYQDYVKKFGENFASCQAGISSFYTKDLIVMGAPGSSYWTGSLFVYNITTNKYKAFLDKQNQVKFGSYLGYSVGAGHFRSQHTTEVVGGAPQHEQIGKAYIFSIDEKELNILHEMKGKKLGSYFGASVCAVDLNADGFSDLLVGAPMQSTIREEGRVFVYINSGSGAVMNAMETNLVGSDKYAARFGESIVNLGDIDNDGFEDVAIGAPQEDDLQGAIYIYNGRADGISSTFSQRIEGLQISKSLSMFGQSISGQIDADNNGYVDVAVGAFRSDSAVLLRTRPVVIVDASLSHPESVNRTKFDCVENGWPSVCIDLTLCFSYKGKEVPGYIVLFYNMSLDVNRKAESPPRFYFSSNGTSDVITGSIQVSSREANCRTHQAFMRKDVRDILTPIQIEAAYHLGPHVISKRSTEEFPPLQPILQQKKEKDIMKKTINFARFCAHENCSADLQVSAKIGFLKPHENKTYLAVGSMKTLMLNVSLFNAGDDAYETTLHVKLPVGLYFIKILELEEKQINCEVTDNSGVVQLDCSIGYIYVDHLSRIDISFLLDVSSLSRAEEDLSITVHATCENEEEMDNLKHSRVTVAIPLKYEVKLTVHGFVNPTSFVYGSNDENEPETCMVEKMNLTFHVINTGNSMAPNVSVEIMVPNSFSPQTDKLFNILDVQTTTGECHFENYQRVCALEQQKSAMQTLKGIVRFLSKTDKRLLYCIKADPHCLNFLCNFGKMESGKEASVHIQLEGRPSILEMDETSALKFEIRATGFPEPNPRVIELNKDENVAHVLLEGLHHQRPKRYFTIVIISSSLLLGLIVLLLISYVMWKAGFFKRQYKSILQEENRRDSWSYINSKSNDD
Sequence (P05556 21-798): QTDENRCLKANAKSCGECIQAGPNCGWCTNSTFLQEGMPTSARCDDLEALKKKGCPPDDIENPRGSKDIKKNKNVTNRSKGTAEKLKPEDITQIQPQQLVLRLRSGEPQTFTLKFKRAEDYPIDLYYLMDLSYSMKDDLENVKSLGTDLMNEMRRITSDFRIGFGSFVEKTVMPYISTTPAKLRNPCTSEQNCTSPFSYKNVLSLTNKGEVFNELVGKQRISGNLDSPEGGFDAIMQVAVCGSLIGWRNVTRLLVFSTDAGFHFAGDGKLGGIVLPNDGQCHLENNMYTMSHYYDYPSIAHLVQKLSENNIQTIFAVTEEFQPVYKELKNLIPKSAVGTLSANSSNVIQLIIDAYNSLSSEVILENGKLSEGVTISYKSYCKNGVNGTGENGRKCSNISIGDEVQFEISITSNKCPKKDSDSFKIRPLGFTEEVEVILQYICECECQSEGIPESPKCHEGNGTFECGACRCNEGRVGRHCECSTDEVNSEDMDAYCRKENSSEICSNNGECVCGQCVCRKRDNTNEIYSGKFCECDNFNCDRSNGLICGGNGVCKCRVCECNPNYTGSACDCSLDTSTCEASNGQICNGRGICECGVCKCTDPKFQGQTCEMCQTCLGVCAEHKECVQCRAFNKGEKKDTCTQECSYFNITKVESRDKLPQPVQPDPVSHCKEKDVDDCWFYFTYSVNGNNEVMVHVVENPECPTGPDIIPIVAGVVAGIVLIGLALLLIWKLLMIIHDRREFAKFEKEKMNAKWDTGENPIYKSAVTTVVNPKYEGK
Assay: cell-based
Type: cell-based
Parameters: host or cells: Jurkat (human T lymphoblastic line)
Protocol: Binding inhibition is measured here as a concentration of peptide that inhibits one-half the binding between a standard number of Jurkat cells and a standard amount of CS-1 peptide bound to the surface of a microtiter plate well. Those concentrations are conveniently expressed as IC50 values, smaller numbers indicating a lower concentration required to inhibit 50 percent binding and therefore greater potency. Further specifics of this assay are provided hereinafter.
Jurkat cells (ATCC TIB 152), a human T lymphoblastic line, labeled with ^51 chromium were used to assay in vitro binding inhibition provided by various peptides discussed herein.
The plates were prepared as follows: The 25-mer CS-1 peptide (SEQ ID NO:1) dissolved at 0.5-1 μg/ml in a buffer of 0.1M NaHCO3 at pH 9.5 that also contained 10 μg/ml of bovine serum albumin (BSA) or a conjugate of the CS-1 peptide linked to ovalbumin (CS-1-OVA) dissolved at 1-2.5 μg/ml in the same buffer was used as the substrate. Each well of the microtiter plates was coated with 50 μl of substrate or buffer alone for controls. The wells were permitted to dry out completely and were then rinsed twice with PBS at pH 7.4. Non-specific binding sites of each well were then blocked using 200 μl per well of RPMI/1 percent BSA for two hours at room temperature. Both solid phase-affixed substrates provided similar results.
Jurkat cells (3-5×10^6 cells) were placed into a 15 ml Falcon™ round-bottom tube with a cap. The tube was centrifuged, and the extra medium was then removed.
Two hundred microliters of a ^51 Cr labeling solution were added to the centrifuged cells and maintained in contact with the cells for 90-120 minutes in a warm room. This procedure typically provides about 50,000-100,000 cpm/well with about 80-100 percent cell viability. Longer contact times provide a greater amount of labeling but lower cell viability.
The labeled cells are washed with (i) complete medium, (ii) 1 mM EDTA/PBS and then (iii) RPM1/1 percent BSA free of serum components. The cells are centrifuged after each washing. The cells are finally resuspended in serum-free RPMI/1 percent BSA at a concentration of 1×10^6 viable cells/ml, which provides a concentration that is diluted by one-half in the assay.
Inhibitor peptides are prepared as stock solutions at 20 mg/ml in DMSO in 1.5 ml cryogenic screwcap vials, and were stored at -70° C. Using Flow™ round-bottom or V-bottom microtiter plates, the inhibitor peptides were prepared at twice the assay concentration in RPMI/1 percent BSA at 60 μl well.
Four initial dilutions were typically used.
The ^51 Cr-labeled cells (1×10^6 cells at 60 μl/well) were then admixed with the diluted peptide solutions. The admixtures were maintained at room temperature (about 22° C.) for 30 minutes.
One hundred microliters of each inhibitor peptide/cell admixture were transferred to the substrate-coated wells. This was done in triplicate for each dilution. The resulting plates were incubated for 30 minutes at 37° C. and then washed gently three times with RPMI/1 percent BSA at 200 μl/well. Binding was observed microscopically, particularly after the second wash.
The bound cells were then lysed by the addition of a 0.5 percent solution of sodium dodecylsulfate in water at 100 μ/l well. The resulting solutions were then processed for counting and calculation of IC50 values following usual procedures. Appropriate positive and negative controls were used with each plate so that the results of separate assays could be normalized and compared.
The data of Table 1 are so normalized.

[1] = normalized IC50 relative to standard peptide of SEQ ID NO:3 (=1), about one-tenth or less of the standard is assigned zero

Molecule | RELATIVE POTENCY (relative peptide inhibition of VLA-4 binding CS-1) [1] | RELATIVE POTENCY (relative peptide inhibition of VLA-4 binding CS-1) | further results
CC(C)C[C@H](NC(=O)Cc1ccccc1)C(=O)N[C@@H](CC(=O)O)C(=O)N[C@@H](CC(C)C)C(=O)N1CCOCC1 [X L D L Z phenylacetyl morpholinamide] (PhAc-Leu-Asp-Leu-Morpholide) | 291 | – | –
CC(C)C[C@H](NC(=O)Cc1ccccc1)C(=O)N[C@@H](CC(=O)O)C(=O)N[C@@H](Cc1ccccc1)C(N)=O [X L D F phenylacetyl amide] (PhAc-Leu-Asp-Phe-NH2) | 1 | – | –
NC(=O)[C@H]1CCCN1C(=O)[C@H](Cc1ccccc1)NC(=O)[C@H](CC(=O)O)NC(=O)[C@H](CC1CCCCC1)NC(=O)c1ccccc1 (Bz-[Cha]DF[dP]-NH2) | 17 | – | –
CC(C)C[C@H](NC(=O)Cc1ccccc1)C(=O)N[C@@H](CC(=O)O)C(=O)NC1CCCCNC1=O (some centres unmarked) | 27 | – | –
CC(C)C[C@H](NC(=O)Cc1ccccc1)C(=O)N[C@@H](CC(=O)O)C(=O)NN(Cc1ccccc1)C(=O)C1CCCC1 | 1 | – | –
CCC(C)CC(=O)N[C@@H](CC(C)C)C(=O)N[C@@H](CC(=O)O)C(=O)N[C@H](C(=O)N1CCC[C@@H]1C(N)=O)C(C)C (some centres unmarked) [X L D V p 3-methylvaleroyl amide] | – | 3 | –
CC(C)C[C@@H](C(=O)N[C@@H](CC(=O)O)C(=O)N[C@H](C(=O)N1CCC[C@@H]1C(N)=O)C(C)C)N1C(=O)c2ccccc2C1=O [X L D V p phthalimido amide] | – | 140 | –
CC(C)C[C@H](NC(=O)Cc1ccccc1)C(=O)N[C@@H](CC(=O)O)C(=O)N[C@@H](Cc1ccccc1)C(=O)N1CCNCC1 [X L D F Z phenylacetyl piperazinamide] | 506 | – | –
CC[C@H](C)[C@H](N)C(=O)N[C@@H](CC(C)C)C(=O)N[C@@H](CC(=O)O)C(=O)N[C@H](C(=O)N1CCC[C@H]1C(=O)N[C@H](C(=O)N[C@@H](CC(C)C)C(=O)N[C@@H](CC(=O)O)C(=O)N[C@H](C(=O)N1CCC[C@H]1C(N)=O)C(C)C)[C@@H](C)CC)C(C)C [I L D V P I L D V P free amine amide] (H-ILDVPILDVP-NH2) | – | 2 | –
Z X F L D F p: X = ε-amidocaproyl, Z = Europium label (diethylenetriaminepentaacetatoeuropium), C-terminal amide ({code Z-ε‑amidocaproyl}-FLDF[dP]-NH2; also: europium chelate) | 118 | – | binding inhibition better than the standard 10-mer peptide of SEQ ID NO:3: about 120 times
CC(C)COC(=O)N[C@@H](CC(=O)O)C(=O)N[C@@H](Cc1ccccc1)C(=O)N1CCCCC1 | – | 0 | –
CC(C)C[C@H](NC(=O)Cc1ccccc1)C(=O)N[C@@H](CC(=O)O)C(=O)NN [X L D Z phenylacetyl hydrazide] (PhAc-Leu-Asp-NHNH2) | 1 | – | –
CC(C)C[C@H](NC(=O)Cc1ccccc1)C(=O)N[C@@H](CC(=O)O)C(=O)NN(Cc1ccccc1)Cc1ccccc1 | 0 | – | –
CC(C)C[C@H](NC(=O)Cc1ccccc1)C(=O)N[C@@H](CC(=O)O)C(=O)NC1CCN(C2CCCCC2)C1=O (some centres unmarked) | 7 | – | –
Cc1ccc(C(=O)N[C@@H](CC(C)C)C(=O)N[C@@H](CC(=O)O)C(=O)N[C@H](C(=O)N2CCC[C@@H]2C(N)=O)C(C)C)cc1C [X L D V p 3,4-dimethylbenzoyl amide] | – | 8 | –
CC(C)C[C@H](NC(=O)CCC1CCCCC1)C(=O)N[C@@H](CC(=O)O)C(=O)N[C@H](C(=O)N1CCC[C@@H]1C(N)=O)C(C)C [X L D V p cyclohexanepropionyl amide] | – | 1 | –
CC(C)C[C@H](NC(=O)Cc1ccccc1)C(=O)N[C@@H](CC(=O)O)C(=O)NC1Cc2ccccc2N(CC(C)C)C1=O (some centres unmarked) | 6 | – | –

Molecule | RELATIVE POTENCY (relative peptide inhibition of VLA-4 binding CS-1) [1] | RELATIVE POTENCY (relative peptide inhibition of VLA-4 binding CS-1) | further results
CC(C)C[C@H](NC(=O)Cc1ccccc1)C(=O)N[C@@H](CC(=O)O)C(=O)N[C@@H](Cc1ccccc1)C(=O)N1CCCC1CO (some centres unmarked) | 184 | – | –
CC(C)C[C@H](NCc1ccccc1)C(=O)N[C@@H](CC(=O)O)C(=O)N[C@@H](Cc1ccccc1)C(=O)N1CCCCC1 [X L D F Z benzyl piperidinamide] | – | 6 | –
CC(C)C[C@H](NC(=O)c1ccccc1)C(=O)N[C@@H](CC(=O)O)C(=O)N[C@H](C(=O)N1CCC[C@H]1C(N)=O)C(C)C [X L D V P benzoyl amide] | 37 | – | RELATIVE POTENCY (relative peptide inhibition of VLA-4 binding CS-1) (normalized IC50 relative to standard peptide of SEQ ID NO:3 (=1), about one-tenth or less of the standard is assigned zero, listed as X L D V p benzoyl amide): 20
CC(C)C[C@H](NC(=O)Cc1ccccc1)C(=O)N[C@@H](CC(=O)O)C(=O)N[C@H]1Cc2ccccc2[C@H]2CCCCN2C1=O | 50 | – | –
CC(C)C[C@H](NC(=O)C=Cc1ccccc1)C(=O)N[C@@H](CC(=O)O)C(=O)N[C@H](C(=O)N1CCC[C@@H]1C(N)=O)C(C)C [X L D V p cinnamoyl amide] | – | 1 | –
CC(C)C[C@H](NC(=O)Cc1ccccc1)C(=O)N[C@@H](CC(=O)O)C(=O)N[C@@H](Cc1ccccc1)C(=O)N1CC(O)C(O)C1 (some centres unmarked) | 194 | – | –
CC(C)C[C@H](NC(=O)Cc1ccccc1)C(=O)N[C@@H](CC(=O)O)C(=O)NC(c1ccccc1)c1ccccc1 [X L D Z phenylacetyl benzylhydrylamide] | 3 | – | –
CC(C)C[C@H](NC(=O)Cc1ccccc1)C(=O)N[C@@H](CC(=O)O)C(=O)NC(Cc1ccccc1)Cc1ccccc1 | 0 | – | –
CC(C)C[C@@H](C(=O)N[C@@H](CC(=O)O)C(=O)N[C@@H](Cc1ccccc1)C(=O)N1CCC[C@@H]1C(N)=O)n1c(=O)[nH]c2ccccc2c1=O | – | 56 | –
CC(=O)N[C@@H](CC(C)C)C(=O)N[C@@H](CC(=O)O)C(=O)N[C@H](C(N)=O)C(C)C [L D V acetyl amide, reference compound] (Ac-Leu-Asp-Val-NH2) | – | 1 | –
CC(C)C[C@H](NC(=O)Cc1ccccc1)C(=O)N[C@@H](CC(=O)O)C(=O)NC1Cc2ccccc2N(CC(N)=O)C1=O (some centres unmarked) | 45 | – | –
CC(C)C[C@H](NS(=O)(=O)c1cccc2cccnc12)C(=O)N[C@@H](CC(=O)O)C(=O)N[C@@H](Cc1ccccc1)C(=O)N1CCC[C@@H]1C(N)=O [X L D F p 8-quinolinesulfonyl amide] (X15-LDF[dP]-NH2) | – | 3 | –
CC(C)CCC(=O)N[C@@H](CC(C)C)C(=O)N[C@@H](CC(=O)O)C(=O)N[C@H](C(=O)N1CCC[C@@H]1C(N)=O)C(C)C [X L D V p 4-methylvaleroyl amide] | – | 3 | –
CC(C)C[C@H](NC(=O)c1ccccc1)C(=O)N[C@@H](CC(=O)O)C(=O)N[C@@H](Cc1ccccc1)C(=O)N1CCC[C@@H]1C(N)=O [X L D F p benzoyl amide] (Bz-LDF[dP]-NH2) | 75 | – | –
CC(C)C[C@H](NC(=O)Cc1ccc(Br)cc1)C(=O)N[C@@H](CC(=O)O)C(=O)N[C@@H](Cc1ccccc1)C(=O)N1CCC[C@@H]1C(N)=O [X L D F p p-bromophenylacetyl amide] (X19-LDF[dP]-NH2) | – | 3 | –
CC(C)C[C@H](NC(=O)C(C)(C)C)C(=O)N[C@@H](CC(=O)O)C(=O)N[C@H](C(=O)N1CCCC1C(N)=O)C(C)C (single isomer, unassigned) [X L D V P pivaloyl amide] | – | 20 | –
